Results published in patent publication US20260240835A1 (priority 2022, published 2026).
Counter-ions that a name gives are not always drawn. Like-named read-outs stand apart in the source and are kept apart here.

Tests used:
[1] = Pharmacokinetics in moderate renal impairment versus matched controls
Text: (§1) References used are the matched healthy subjects for renal and hepatic impairment studies, and extensive or ultra-extensive CYP2D6 metabolizers respectively.

[2] = Pharmacokinetics in moderate hepatic impairment versus matched healthy subjects; assay type: in vivo, human
Text: Data are GMRs and 90% Cls. References used are the matched healthy subjects for renal and hepatic impairment studies, and extensive or ultra-extensive CYP2D6 metabolizers respectively.

[3] = Solubility of the powder in water
[4] = Pharmacokinetics in CYP2D6 poor metabolizers versus extensive metabolizers; conditions: 12 poor metabolizers treated with the subject combination in efficacy trials
Text: Approximately 7% to 10% of Caucasians and 3% to 8% of African Americans lack the capacity to metabolize CYP2D6 substrates and are classified as poor metabolizers.
as §1

[5] = Effect of food on pharmacokinetics of the subject combination
[6] = Steady state pharmacokinetics after administration of the subject combination; conditions: for dose proportionality of changes in AUC and Cmax at steady state: co-administered with bupropion; for AUC0-12 relative to that of bupropion / Cmax relative to that of bupropion / time post-dose at which Cmax of the metabolite occurs: after administration of the subject combination; for apparent elimination half-life of metabolite: subject combination
[7] = Co-administration of paroxetine and the subject combination (drug interaction)
[8] = tested on: patients with treatment-resistant depression or MDD with acute suicidal ideation or behavior; conditions: cited from earlier work
[9] = human, in vivo
[10] = 7 subjects with moderate (GFR 30-60 mL/min) renal impairment vs 6 matched controls
[11] = given as the subject combination
[12] = 20 mg paroxetine, tablet of Example 4 twice daily, vs tablet without paroxetine

Structure (SMILES): CC(NC(C)(C)C)C(=O)c1cccc(Cl)c1 (racemic) [bupropion]
- increase in exposure versus matched controls with normal renal function ([1]; human, in vivo): approximately 2 fold
- reduction in clearance versus matched controls with normal renal function ([1]; human, in vivo): 50%
- AUC0-12 and Cmax compared with healthy patients ([2]; human, in vivo): not significantly different

Structure (SMILES): COc1ccc2c(c1)[C@]13CCCC[C@@H]1[C@H](C2)N(C)CC3 [Dextromethorphan hydrobromide, morphinan, 3-methoxy-17-methyl-, (9α, 13α, 14α), hydrobromide monohydrate]
- solubility in water [3]: sparingly soluble

Structure (SMILES): COc1ccc2c(c1)[C@]13CCCC[C@@H]1[C@H](C2)N(C)CC3 [dextromethorphan]
- increase in exposure versus matched controls with normal renal function [1, 10]: approximately 2 fold
- reduction in clearance versus matched controls with normal renal function [1, 10]: 50%
- AUC0-12 and Cmax compared with healthy patients ([2]; patients having moderate hepatic impairment (Group 2)): not significantly different
- steady state plasma concentrations compared with non-poor metabolizers [4]: generally higher
- change in Cmax when administered with food [5]: unchanged
- decrease in AUC0-12 when administered with food [5]: 14%
- dose proportionality of changes in AUC and Cmax at steady state ([6]; varying doses of bupropion (75 to 150 mg)): less than dose-proportional
- dose proportionality of changes in AUC and Cmax at steady state ([6]; varying doses of dextromethorphan (30 to 60 mg)): greater than dose-proportional
- increase in mean elimination half-life as compared to dextromethorphan given without bupropion ([6]; following 8 days of administration of the subject combination in extensive metabolizers): approximately 3 fold
- accumulation ratio at steady state based on AUC0-12 [6, 11]: about 32
- accumulation ratio at steady state based on Cmax [6, 11]: about 20
- increase in AUC0-12 with concomitant paroxetine [7, 12]: 2.69 fold
- increase in Cmax with concomitant paroxetine [7, 12]: 2.38 fold
- change in overall exposure caused by paroxetine ([7]; 29 healthy volunteers, paroxetine co-administered with the subject combination): 2.5 fold

Structure (SMILES): CC(NC(C)(C)C)C(O)c1cccc(Cl)c1 (centres unmarked) [erythrohydroxybupropion]
- AUC0-12 relative to that of bupropion [6]: about 1.2 times
- Cmax relative to that of bupropion [6]: approximately equal to
- time post-dose at which Cmax of the metabolite occurs [6]: approximately 4 hours
- apparent elimination half-life of metabolite [6]: ~44 h

Structure (SMILES): CN[C@]1(c2ccccc2Cl)CCCCC1=O [esketamine]
- incidence of sedation (MOAA/S score <5) compared to placebo plus oral antidepressant ([8]; adults with MDD with acute suicidal ideation or behavior, plus oral antidepressant): higher incidence of sedation
- Incidence of Sedation (MOAA/S score <5) ([8]; fixed-dose study, TRD patients <65 years, 56 mg + oral AD): 50%
- Incidence of Sedation (MOAA/S score <5) ([8]; fixed-dose study, TRD patients <65 years, 84 mg + oral AD): 61%
- Incidence of Sedation (MOAA/S score <5) ([8]; flexible-dose study, TRD patients ≥65 years, 28 to 84 mg + oral AD): 49%

Structure (SMILES): C[C@H]1NC(C)(C)CO[C@]1(O)c1cccc(Cl)c1 [hydroxybupropion]
- AUC0-12 relative to that of bupropion [6]: about 19 times
- Cmax relative to that of bupropion [6]: approximately 14 times
- time post-dose at which Cmax of the metabolite occurs [6]: about 3 hours
- apparent elimination half-life of metabolite [6]: approximately 35 hours

Structure (SMILES): Fc1ccc([C@@H]2CCNC[C@H]2COc2ccc3c(c2)OCO3)cc1 [paroxetine]
- increase in overall exposure when co-administered with the subject combination [9]: 1.2 fold

Structure (SMILES): C[C@H](NC(C)(C)C)[C@@H](O)c1cccc(Cl)c1 [threohydroxybupropion]
- AUC0-12 relative to that of bupropion [6]: about 7 times
- Cmax relative to that of bupropion [6]: about 5 times
- time post-dose at which Cmax of the metabolite occurs [6]: approximately 4 hours
- apparent elimination half-life of metabolite [6]: ~33 h
